The values below come from patent US11377440B2, “Modulators of stimulator of interferon genes (STING)” (GlaxoSmithKline Intellectual Property Development Limited, priority 2017, dated 2022).

The assay has as its system T1, STING.
T1 construct: endogenous in cells; host or cells: THP-1
Put plainly: Functional assay IV (THP-1 antagonist assay), IFNβ secretion after Bacmam virus. The class given is cell-based, human. To be noted: THP-1 cells, Bacmam virus MOI of 40 pfu/cell; upper limit of the assay 9.1.

`CCn1nc(C)cc1C(=O)/N=c1\n(C)c2cc(C(N)=O)ccc2n1CCCCCn1/c(=N/C(=O)c2cc(C)nn2CC)n(C)c2cc(C(N)=O)ccc21` [Example 24]: the “THP-1 antagonist assay (pIC50)” value came out at 4.6.
